In publication PMC3659552 (Journal of Ginseng Research, 2011):

Target: AChE (acetylcholineserase)
Test: Ellman spectrophotometric assay, […] nm
Format: biochemical, Electrophorus electricus
Conditions: acetylthiocholine iodide substrate; pH 8.0; 10 min preincubation

## Nc1c2c(nc3ccccc13)CCCC2 [tacrine]
  IC50: 825 nM
